Assay results as given in PubChem BioAssay (NCI).
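Five concentrations, 48 hours, 96-well plates. TGI denotes the concentration required for complete inhibition of growth.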

Key:
Test in all cases: DTP human tumour cell line panel, 48 h
UACC-257 melanoma = test system: UACC-257 melanoma
COLO 205 colon = test system: COLO 205 colon
LOX IMVI melanoma = test system: LOX IMVI melanoma
NCI-H460 lung = test system: NCI-H460 lung
NCI/ADR-RES ovarian = test system: NCI/ADR-RES ovarian
SNB-19 CNS = test system: SNB-19 CNS
CAKI-1 renal = test system: CAKI-1 renal
M14 melanoma = test system: M14 melanoma
SF-295 CNS = test system: SF-295 CNS
SW-620 colon = test system: SW-620 colon
MDA-N = test system: MDA-N
UACC-62 melanoma = test system: UACC-62 melanoma
OVCAR-8 ovarian = test system: OVCAR-8 ovarian
HL-60(TB) leukemia = test system: HL-60(TB) leukemia
T-47D breast = test system: T-47D breast
HOP-92 NSCLC = test system: HOP-92 NSCLC
MDA-MB-435 = test system: MDA-MB-435
OVCAR-5 ovarian = test system: OVCAR-5 ovarian
MDA-MB-231 breast = test system: MDA-MB-231 breast
NCI-H23 lung = test system: NCI-H23 lung
MOLT-4 leukemia = test system: MOLT-4 leukemia
A549 NSCLC = test system: A549 NSCLC
HCC-2998 colon = test system: HCC-2998 colon
RPMI-8226 leukemia = test system: RPMI-8226 leukemia
SK-MEL-5 melanoma = test system: SK-MEL-5 melanoma
786-0 renal = test system: 786-0 renal
SK-OV-3 ovarian = test system: SK-OV-3 ovarian
HT29 colon = test system: HT29 colon
SK-MEL-28 melanoma = test system: SK-MEL-28 melanoma
SF-539 CNS = test system: SF-539 CNS
HCT-116 colon = test system: HCT-116 colon
MCF7 breast = test system: MCF7 breast
RXF 393 renal = test system: RXF 393 renal
CCRF-CEM leukemia = test system: CCRF-CEM leukemia
DU-145 prostate = test system: DU-145 prostate
HOP-62 NSCLC = test system: HOP-62 NSCLC
HS 578T breast = test system: HS 578T breast
OVCAR-3 ovarian = test system: OVCAR-3 ovarian
U251 CNS = test system: U251 CNS
HCT-15 colon = test system: HCT-15 colon
SK-MEL-2 melanoma = test system: SK-MEL-2 melanoma
UO-31 renal = test system: UO-31 renal
OVCAR-4 ovarian = test system: OVCAR-4 ovarian
EKVX NSCLC = test system: EKVX NSCLC
K-562 leukemia = test system: K-562 leukemia
TK-10 renal = test system: TK-10 renal
ACHN renal = test system: ACHN renal
SN12C renal = test system: SN12C renal
NCI-H226 lung = test system: NCI-H226 lung
A498 renal = test system: A498 renal
BT-549 breast = test system: BT-549 breast
MALME-3M melanoma = test system: MALME-3M melanoma
NCI-H522 lung = test system: NCI-H522 lung
SF-268 CNS = test system: SF-268 CNS
KM12 colon = test system: KM12 colon
PC-3 prostate = test system: PC-3 prostate
IGROV1 ovarian = test system: IGROV1 ovarian
SNB-75 CNS = test system: SNB-75 CNS

COc1cc(/C=C2\C(=O)N(c3ccccc3Cl)C(c3ccccc3)S2(=O)=O)cc(OC)c1OC (stereo not drawn)
TGI (UACC-257 melanoma): > 100 µM
TGI (COLO 205 colon): > 100 µM
TGI (LOX IMVI melanoma): 50.5 µM
TGI (NCI-H460 lung): > 100 µM
TGI (NCI/ADR-RES ovarian): > 100 µM
TGI (SNB-19 CNS): > 100 µM
TGI (CAKI-1 renal): > 100 µM
TGI (M14 melanoma): > 100 µM
TGI (SF-295 CNS): > 100 µM
TGI (SW-620 colon): > 100 µM
TGI (MDA-N): 42.5 µM
TGI (UACC-62 melanoma): > 100 µM
TGI (OVCAR-8 ovarian): > 100 µM
TGI (HL-60(TB) leukemia): > 100 µM
TGI (T-47D breast): > 100 µM
TGI (HOP-92 NSCLC): > 100 µM
TGI (MDA-MB-435): > 100 µM
TGI (OVCAR-5 ovarian): > 100 µM
TGI (MDA-MB-231 breast): > 100 µM
TGI (NCI-H23 lung): > 100 µM
TGI (MOLT-4 leukemia): 36.4 µM
TGI (A549 NSCLC): > 100 µM
TGI (HCC-2998 colon): > 100 µM
TGI (RPMI-8226 leukemia): 42.9 µM
TGI (SK-MEL-5 melanoma): 45.5 µM
TGI (786-0 renal): > 100 µM
TGI (SK-OV-3 ovarian): > 100 µM
TGI (HT29 colon): 52.2 µM
TGI (SK-MEL-28 melanoma): > 100 µM
TGI (SF-539 CNS): 38.3 µM
TGI (HCT-116 colon): > 100 µM
TGI (MCF7 breast): > 100 µM
TGI (RXF 393 renal): 76.7 µM
TGI (CCRF-CEM leukemia): 48.9 µM
TGI (DU-145 prostate): > 100 µM
TGI (HOP-62 NSCLC): > 100 µM
TGI (HS 578T breast): > 100 µM
TGI (OVCAR-3 ovarian): > 100 µM
TGI (U251 CNS): 81.8 µM
TGI (HCT-15 colon): > 100 µM
TGI (SK-MEL-2 melanoma): > 100 µM
TGI (UO-31 renal): > 100 µM
TGI (OVCAR-4 ovarian): > 100 µM
TGI (EKVX NSCLC): > 100 µM
TGI (K-562 leukemia): 94.9 µM
TGI (TK-10 renal): > 100 µM
TGI (ACHN renal): > 100 µM
TGI (SN12C renal): 60.6 µM
TGI (NCI-H226 lung): > 100 µM
TGI (A498 renal): > 100 µM
TGI (BT-549 breast): > 100 µM
TGI (MALME-3M melanoma): 89.3 µM
TGI (NCI-H522 lung): 46.5 µM
TGI (SF-268 CNS): > 100 µM
TGI (KM12 colon): 83.5 µM

Oc1cc(-c2ccc(Cl)cc2)cn2c1nc1ccccc12
TGI (UACC-257 melanoma): > 100 µM
TGI (COLO 205 colon): > 100 µM
TGI (LOX IMVI melanoma): > 100 µM
TGI (NCI-H460 lung): > 100 µM
TGI (PC-3 prostate): > 100 µM
TGI (NCI/ADR-RES ovarian): > 100 µM
TGI (SNB-19 CNS): > 100 µM
TGI (CAKI-1 renal): > 100 µM
TGI (M14 melanoma): > 100 µM
TGI (SF-295 CNS): > 100 µM
TGI (SW-620 colon): > 100 µM
TGI (MDA-N): > 100 µM
TGI (UACC-62 melanoma): > 100 µM
TGI (OVCAR-8 ovarian): > 100 µM
TGI (HL-60(TB) leukemia): > 100 µM
TGI (T-47D breast): > 100 µM
TGI (HOP-92 NSCLC): > 100 µM
TGI (MDA-MB-435): > 100 µM
TGI (MDA-MB-231 breast): > 100 µM
TGI (NCI-H23 lung): > 100 µM
TGI (786-0 renal): > 100 µM
TGI (SK-OV-3 ovarian): > 100 µM
TGI (HT29 colon): > 100 µM
TGI (SK-MEL-28 melanoma): > 100 µM
TGI (SF-539 CNS): > 100 µM
TGI (IGROV1 ovarian): > 100 µM
TGI (HCT-116 colon): > 100 µM
TGI (MCF7 breast): > 100 µM
TGI (RXF 393 renal): > 100 µM
TGI (DU-145 prostate): > 100 µM
TGI (HOP-62 NSCLC): > 100 µM
TGI (HS 578T breast): > 100 µM
TGI (OVCAR-3 ovarian): > 100 µM
TGI (SNB-75 CNS): > 100 µM
TGI (U251 CNS): > 100 µM
TGI (HCT-15 colon): > 100 µM
TGI (UO-31 renal): > 100 µM
TGI (OVCAR-4 ovarian): > 100 µM
TGI (EKVX NSCLC): > 100 µM
TGI (K-562 leukemia): > 100 µM
TGI (TK-10 renal): > 100 µM
TGI (SN12C renal): > 100 µM
TGI (NCI-H226 lung): > 100 µM
TGI (A498 renal): > 100 µM
TGI (MALME-3M melanoma): > 100 µM
TGI (NCI-H522 lung): > 100 µM
TGI (SF-268 CNS): > 100 µM
TGI (KM12 colon): > 100 µM
